Values of other authors as cited in PubChem BioAssay AID1259409 (Chemical Carcinogenesis Research Information System (CCRIS), 2018).

Test system: rodent chemically induced tumor inhibition, incidence and multiplicity
Experiment: CCRIS tumor inhibitor studies
Settings: Promoter: NONE USED

## CC/C(=C(\c1ccccc1)c1ccc(OCCN(C)C)cc1)c1ccccc1
Carcinogen: N-METHYL-N-NITROSOUREA, 684-93-5, Dose [Inhibitor]: 50 UG DISSOLVED IN SMALL VOLUME OF ETHANOL AND DILUTED IN 1% GELATIN-0.9% NACL TO INJECTION VOLUME OF 0.2 ML, DAILY STAR, Route [Inhibitor]: INJECTION, Species: RAT, Strain/Sex: SPRAGUE-DAWLEY/FEMALE, Target Tissue: Type of Lesion: MAMMARY GLAND: TUMOR, Dose [Carcinogen]: 5 MG/100 G BW AT 0, 4 AND 8 WK OF STUDY STARTING SIMULTANEOUSLY WITH AGENT TREATMENT
  tumour outcome (control, treated, inhibition, significance): 86%, 9%, 90%, not calculated
Carcinogen: N-NITROSO-N-METHYLUREA, 684-93-5, Dose [Inhibitor]: 0, 0.5 MG/KG OF DIET FOR 3 MO BEGINNING 1 WK POST CARCINOGEN DOSE (STUDY DURATION: 100 D), Route [Inhibitor]: ORAL, Species: RAT, Strain/Sex: SPRAGUE-DAWLEY/FEMALE, Target Tissue: Type of Lesion: MAMMARY GLAND: TUMOR, Dose [Carcinogen]: 50 MG/KG BW ONCE
  tumour outcome (control, treated, inhibition, significance): 100%, 75%, 25%, p=0.03
Carcinogen: N-NITROSO-N-METHYLUREA, 684-93-5, Dose [Inhibitor]: 0, 0.5 MG/KG OF DIET FOR 4.5 MO BEGINNING 1 WK POST CARCINOGEN DOSE (STUDY DURATION: 100 D), Route [Inhibitor]: ORAL, Species: RAT, Strain/Sex: SPRAGUE-DAWLEY/FEMALE, Target Tissue: Type of Lesion: MAMMARY GLAND: TUMOR, Dose [Carcinogen]: 50 MG/KG BW ONCE
  tumour outcome (control, treated, inhibition, significance): 96%, 50%, 48%, p=0.003
Carcinogen: N-NITROSO-N-METHYLUREA, 684-93-5, Dose [Inhibitor]: 0, 1 MG/KG OF DIET FOR 4.5 MO BEGINNING 1 WK POST CARCINOGEN DOSE (STUDY DURATION: 100 D), Route [Inhibitor]: ORAL, Species: RAT, Strain/Sex: SPRAGUE-DAWLEY/FEMALE, Target Tissue: Type of Lesion: MAMMARY GLAND: TUMOR, Dose [Carcinogen]: 50 MG/KG BW ONCE
  tumour outcome (control, treated, inhibition, significance): 96%, 42%, 56%, p<0.001
Carcinogen: NONE USED, Dose [Inhibitor]: 0, 125 UG/D FROM SUSTAINED RELEASE SILASTIC CAPSULES ADMINISTERED TO OVARIECTOMIZED MICE FOR 17 MO BEGINNING AT 3 MO OF, Route [Inhibitor]: IMPLANT, Species: MOUSE, Strain/Sex: C3H/OUJ/FEMALE, Target Tissue: Type of Lesion: MAMMARY GLAND: TUMOR
  tumour outcome (control, treated, inhibition, significance): 50%, 22%, 56%, p<0.003
Carcinogen: NONE USED, Dose [Inhibitor]: 0, 125 UG/D FROM SUSTAINED RELEASE SILASTIC CAPSULES FOR 3 MO BEGINNING AT 4 MO OF AGE (STUDY DURATION: 18 MO), Route [Inhibitor]: IMPLANT, Species: MOUSE, Strain/Sex: C3H/OUJ/FEMALE, Target Tissue: Type of Lesion: MAMMARY GLAND: TUMOR
  tumour outcome (control, treated, inhibition, significance): 100%, 20%, 80%, p<0.001
Carcinogen: NONE USED, Dose [Inhibitor]: 0, 125 UG/D FROM SUSTAINED RELEASE SILASTIC CAPSULES FOR 6 MO BEGINNING AT 3 MO OF AGE (STUDY DURATION: 18 MO), Route [Inhibitor]: IMPLANT, Species: MOUSE, Strain/Sex: C3H/OUJ/FEMALE, Target Tissue: Type of Lesion: MAMMARY GLAND: TUMOR
  tumour outcome (control, treated, inhibition, significance): 100%, 26%, 74%, p<0.001
Carcinogen: NONE USED, Dose [Inhibitor]: 0, 125 UG/D FROM SUSTAINED RELEASE SILASTIC CAPSULES FOR 12 MO BEGINNING AT 3 MO OF AGE (STUDY DURATION: 18 MO), Route [Inhibitor]: IMPLANT, Species: MOUSE, Strain/Sex: C3H/OUJ/FEMALE, Target Tissue: Type of Lesion: MAMMARY GLAND: TUMOR
  tumour outcome (control, treated, inhibition, significance): 100%, 24%, 76%, p<0.001
Carcinogen: NONE USED, Dose [Inhibitor]: 0, 125 UG/D FROM SUSTAINED RELEASE SILASTIC CAPSULES FOR 17 MO BEGINNING AT 3 MO OF AGE (STUDY DURATION: 27 MO), Route [Inhibitor]: IMPLANT, Species: MOUSE, Strain/Sex: C3H/OUJ/FEMALE, Target Tissue: Type of Lesion: MAMMARY GLAND: TUMOR
  tumour outcome (control, treated, inhibition, significance): 100%, 20%, 80%, p<0.003
Carcinogen: PROGESTERONE, 57-83-0, Dose [Inhibitor]: 0, 125 UG/D FROM SUSTAINED RELEASE SILASTIC CAPSULES FOR 3 MO PRIOR TO CARCINOGEN TREATMENT (STUDY DURATION: 18 MO), Route [Inhibitor]: IMPLANT, Species: MOUSE, Strain/Sex: C3H/OUJ/FEMALE, Target Tissue: Type of Lesion: MAMMARY GLAND: TUMOR, Dose [Carcinogen]: 20 MG ADMINISTERED IN SUSTAINED RELEASE SILASTIC CAPSULES FOR A ONE MO DURATION EVERY OTHER MO
  tumour outcome (control, treated, inhibition, significance): 100%, 92%, 8%, not significant
Carcinogen: PROGESTERONE, 57-83-0, Dose [Inhibitor]: 0, 125 UG/D FROM SUSTAINED RELEASE SILASTIC CAPSULES FOR 6 MO PRIOR TO CARCINOGEN TREATMENT (STUDY DURATION: 18 MO), Route [Inhibitor]: IMPLANT, Species: MOUSE, Strain/Sex: C3H/OUJ/FEMALE, Target Tissue: Type of Lesion: MAMMARY GLAND: TUMOR, Dose [Carcinogen]: 20 MG ADMINISTERED IN SUSTAINED RELEASE SILASTIC CAPSULES FOR A ONE MO DURATION EVERY OTHER MO
  tumour outcome (control, treated, inhibition, significance): 100%, 52%, 48%, p<0.002
Carcinogen: PROGESTERONE, 57-83-0, Dose [Inhibitor]: 0, 125 UG/D FROM SUSTAINED RELEASE SILASTIC CAPSULES FOR 12 MO BEGINNING AT 3 MO OF AGE (STUDY DURATION: 21 MO), Route [Inhibitor]: IMPLANT, Species: MOUSE, Strain/Sex: C3H/OUJ/FEMALE, Target Tissue: Type of Lesion: MAMMARY GLAND: TUMOR, Dose [Carcinogen]: 20 MG ADMINISTERED IN SUSTAINED RELEASE SILASTIC CAPSULES GIVEN FOR A ONE MONTH DURATION EVERY OTHER MO BEGINNING AT 3 M
  tumour outcome (control, treated, inhibition, significance): 100%, 88%, 12%, not significant
Carcinogen: SUBCUTANEOUS IMPLANT, Dose [Inhibitor]: ZERANOL, 26538-44-3, Route [Inhibitor]: 0, 5 MG 2/WK TO DAY 32 THEN 1/WK TO DAY 202 (STUDY DURATION: 202 D), Species: HAMSTER, Strain/Sex: SUBCUTANEOUS, Target Tissue: Type of Lesion: LIVER: HEPATOCELLULAR ADENOMA, Dose [Carcinogen]: NONE USED
  tumour outcome (control, treated, inhibition, significance): 56%, 0%, 100%, not calculated
Carcinogen: ZERANOL, 26538-44-3, Dose [Inhibitor]: 0, 5 MG 2/WK TO DAY 32 THEN 1/WK TO DAY 202 (STUDY DURATION: 202 D), Route [Inhibitor]: SUBCUTANEOUS, Species: HAMSTER, Strain/Sex: ARMENIAN/FEMALE, Target Tissue: Type of Lesion: LIVER: HEPATOCELLULAR ADENOMA, Dose [Carcinogen]: 36 MG IMPLANTED ON DAYS 0 AND 94
  tumour outcome (control, treated, inhibition, significance): 57%, 0%, 100%, not calculated
Carcinogen: ZERANOL, 26538-44-3, Dose [Inhibitor]: 0, 5 MG 2/WK TO DAY 32 THEN 1/WK TO DAY 202 (STUDY DURATION: 202 D), Route [Inhibitor]: SUBCUTANEOUS, Species: HAMSTER, Strain/Sex: ARMENIAN/FEMALE, Target Tissue: Type of Lesion: LIVER: HEPATOCELLULAR CARCINOMA, Dose [Carcinogen]: 36 MG IMPLANTED ON DAYS 0 AND 94
  tumour outcome (control, treated, inhibition, significance): 6/7 (86%), 0/4 (0%), 100%, not calculated
Carcinogen: ZERANOL, 26538-44-3, Dose [Inhibitor]: 0, 5 MG 2/WK TO DAY 32 THEN 1/WK TO DAY 202 (STUDY DURATION: 202 D), Route [Inhibitor]: SUBCUTANEOUS, Species: HAMSTER, Strain/Sex: ARMENIAN/MALE, Target Tissue: Type of Lesion: LIVER: HEPATOCELLULAR CARCINOMA, Dose [Carcinogen]: 36 MG IMPLANTED ON DAYS 0 AND 94
  tumour outcome (control, treated, inhibition, significance): 3/9 (33%), 0/4 (0%), 100%, not calculated
